The record followed here is patent US10220001B2, “Active self-healing biomaterial system” (The Regents of the University of Michigan, priority 2010, dated 2019).

The subject of this experiment is serum testosterone. The experiment in a line: Testosterone suppression in rats after injection of leuprolide acetate self-encapsulated PLGA microspheres. In kind it is in vivo, male Sprague-Dawley rats. As to conditions: for testosterone suppression: result in words. On the procedure: Evaluation of testosterone suppression in rats following injection of leuprolide acetate self-encapsulated PLGA microspheres: The ability of PLGA self-healing microencapsulation to provide long-term in vivo release was evaluated by assessing long-term testosterone suppression after a single injection of leuprolide acetate self-encapsulated PLGA microspheres in male Sprague-Dawley rats (S5-S8). The treatment of experimental animals was in accordance with University committee on use and care of animals (University of Michigan UCUCA), and all NIH guidelines for the care and use of laboratory animals. Male Sprague-Dawley rats of 6 weeks old were housed in cages and given free access to standard laboratory food and water, and allowed one week to acclimate prior to study initiation. Animals were anesthetized with 2-4% isoflurane administered by a calibrated vaporizer (Midmark, Orchard Park, N.Y., USA). The leuprolide acetate self-encapsulated PLGA microspheres (1×2-month dose), leuprolide acetate solution (1×1-month dose), and blank SM PLGA microspheres without drug (1× dose) in a liquid vehicle (1% w/v carboxymethylcellulose and 2% w/v mannitol), and commercial 1-month Lupron Depot (Abbott Laboratories, North Chicago, Ill., USA) (2× dosing at days 0 and 28) were subcutaneously injected at the back (lower neck portion) of rats (6 animals/study group). […]
PLGA self-healing microencapsulation provides long-term delivery of bioactive large molecules in vivo—Long-term testosterone suppression in rats after single injection of leuprolide acetate self-encapsulated PLGA microspheres: Leuprolide acetate (Mw=1209.6 Da) is commonly used in the treatment of hormone-dependent cancers (e.g., prostate cancer) and gynecologic disorders (e.g., endometriosis and precocious puberty). […] The ability of PLGA self-healing microencapsulation to provide long-term in vivo release was evaluated by assessing long-term testosterone suppression in male Sprague-Dawley rats (six rats/study group) in comparison with commercial Lupron Depot™ and negative controls (FIG. 2C). […]

For `CCNC(=O)[C@@H]1CCCN1C(=O)[C@H](CCCNC(=N)N)NC(=O)[C@H](CC(C)C)NC(=O)[C@@H](CC(C)C)NC(=O)[C@H](Cc1ccc(O)cc1)NC(=O)[C@H](CO)NC(=O)[C@H](Cc1c[nH]c2ccccc12)NC(=O)[C@H](Cc1c[nH]cn1)NC(=O)[C@@H]1CCC(=O)N1` [leuprolide solution, Leuprolide acetate], the testosterone suppression result is reported as “failed to provide testosterone suppression below the castration level”. This molecule also returned a serum testosterone level (one day after subcutaneous injection) of roughly 5 ng/mL. For the same molecule, the testosterone suppression result (listed as solution leuprolide) was “ineffective to suppress testosterone”.
